Patent publication US11660298B1, “Preventing thermal trauma by pre-treatment with Icilin” (priority 2019, dated 2023)

Columns and labels:
Interleukin-8 (IL-8) = assay: Indirect ELISA of IL-8 expression in fibroblasts; type: cell-based, Human; conditions: non-thermally challenged and thermally challenged fibroblasts, Icilin 0.0002-0.02 nM
Experimental: (§1) Human Foreskin Fibroblasts (HFF) (ATCC, Manassas, Va.) were cultured in Dulbecco's Modified Eagle Medium Nutrient Mixture F-12 with 10% Fetal Bovine Serum, 1% penicillin streptomycin. 0.05% Trypsin EDTA was used for subculture (Invitrogen, Grand Isl., N.Y.). Cells were incubated at 370 Celsius and 5% CO2, and grown in 96 well, T25 or T75 Corning Tissue Culture vessels. When cells became confluent, they were trypsinized using 0.05% trypsin/EDTA. Cells used for the various assays were plated at 0.2×10^6 cells/mL unless otherwise noted. Fibroblasts were selected due to their critical role in skin wound recovery. Fibroblasts were fluorescently imaged with a Nikon Eclipse TS100 Microscope (Nikon, Melville, N.Y.). An in vitro burn model was created to replicate the severity of a third-degree burn. Cells were plated in a Polystyrene 96 Well Plate (100 μL per well) then burned in a VWR Incubating Micro Plate Shaker (VWR, Bridgeport, N.J.) via its adjustable heat setting. Thermal trauma (burning) was determined to take place at 50° C. for a total of 7.5 minutes (FIG. 1b). This temperature represented cell viability >50% 24 hours after the thermal injury treatment. Temperature of plate was confirmed using a Fluke 63 Infrared Thermometer (Fluke, Phoenix, Ariz.). […] The 96-well plate was read to measure absorbance at 405 nm in a microplate reader (BioTek, Winooski, Vt.).

[1] = tested on: Reactive Oxygen Species (ROS); assay: ROS-Glo H2O2 assay of Reactive Oxygen Species in fibroblasts; type: cell-based, Human
Experimental: Human Foreskin Fibroblasts (HFF) (ATCC, Manassas, Va.) were cultured in Dulbecco's Modified Eagle Medium Nutrient Mixture F-12 with 10% Fetal Bovine Serum, 1% penicillin streptomycin. 0.05% Trypsin EDTA was used for subculture (Invitrogen, Grand Isl., N.Y.). Cells were incubated at 370 Celsius and 5% CO2, and grown in 96 well, T25 or T75 Corning Tissue Culture vessels. When cells became confluent, they were trypsinized using 0.05% trypsin/EDTA. Cells used for the various assays were plated at 0.2×10^6 cells/mL unless otherwise noted. Fibroblasts were selected due to their critical role in skin wound recovery. Fibroblasts were fluorescently imaged with a Nikon Eclipse TS100 Microscope (Nikon, Melville, N.Y.). An in vitro burn model was created to replicate the severity of a third-degree burn. Cells were plated in a Polystyrene 96 Well Plate (100 μL per well) then burned in a VWR Incubating Micro Plate Shaker (VWR, Bridgeport, N.J.) via its adjustable heat setting. Thermal trauma (burning) was determined to take place at 50° C. for a total of 7.5 minutes (FIG. 1b). This temperature represented cell viability >50% 24 hours after the thermal injury treatment. […] ROS was measured through ROS-GIo™ H2O2 Assay (Promega, Madison, Wis.). […] The well plate was then incubated at room temperature for 20 minutes then measured for luminescence (see FIG. 7).

Interleukin-6 (IL-6) = assay: Indirect ELISA of IL-6 expression in fibroblasts; type: cell-based, Human
Experimental: as §1

TRPM8 = TRPM8 (Homo sapiens, UniProt Q7Z2W7); conditions: super-cooling chemical; comparison with menthol; cited from earlier work
[2] = tested on: Human Foreskin Fibroblasts (HFF); assay: Fibroblast viability in the in vitro burn model (MTS / trypan blue exclusion); type: cell-based; conditions: thermally challenged fibroblasts (50° C., 7.5 minutes), Icilin pre-treatment 0.0002-0.02 nM in DMSO, vs untreated burned fibroblasts, about 24 hours after burning
Experimental: as §1, with “treatment. […] Proliferation” for “treatment. Temperature of plate”, “was determined” for “was confirmed”, “using the MTS assay.” for “using a Fluke 63 Infrared Thermometer (Fluke, Phoenix, Ariz.).”, “at 490” for “at 405”, “nm using” for “nm in”, “Vt.). Viability was determined by trypan blue exclusion assays. […]” for “Vt.).”

[3] = tested on: Tumor Necrosis Factor-α (TNF-α); assay: Indirect ELISA of TNF-α expression in fibroblasts; type: cell-based, Human
Experimental: as §1

[4] = tested on: Transient receptor potential cation channel subfamily M member 8 (TRPM8); assay: TRPM8 expression levels in fibroblasts; type: cell-based, Human
Experimental: Human Foreskin Fibroblasts (HFF) (ATCC, Manassas, Va.) were cultured in Dulbecco's Modified Eagle Medium Nutrient Mixture F-12 with 10% Fetal Bovine Serum, 1% penicillin streptomycin. 0.05% Trypsin EDTA was used for subculture (Invitrogen, Grand Isl., N.Y.). Cells were incubated at 370 Celsius and 5% CO2, and grown in 96 well, T25 or T75 Corning Tissue Culture vessels. When cells became confluent, they were trypsinized using 0.05% trypsin/EDTA. Cells used for the various assays were plated at 0.2×10^6 cells/mL unless otherwise noted. Fibroblasts were selected due to their critical role in skin wound recovery. Fibroblasts were fluorescently imaged with a Nikon Eclipse TS100 Microscope (Nikon, Melville, N.Y.). An in vitro burn model was created to replicate the severity of a third-degree burn. Cells were plated in a Polystyrene 96 Well Plate (100 μL per well) then burned in a VWR Incubating Micro Plate Shaker (VWR, Bridgeport, N.J.) via its adjustable heat setting. Thermal trauma (burning) was determined to take place at 50° C. for a total of 7.5 minutes (FIG. 1b). This temperature represented cell viability >50% 24 hours after the thermal injury treatment. Temperature of plate was confirmed using a Fluke 63 Infrared Thermometer (Fluke, Phoenix, Ariz.). […]

Interleukin-1β (IL-1β) = assay: Indirect ELISA of IL-1β expression in fibroblasts; type: cell-based, Human
Experimental: as §1

[5] = non-thermally challenged fibroblasts, all Icilin concentrations

TRPM8, sequence (Q7Z2W7 whole entry, species assumed): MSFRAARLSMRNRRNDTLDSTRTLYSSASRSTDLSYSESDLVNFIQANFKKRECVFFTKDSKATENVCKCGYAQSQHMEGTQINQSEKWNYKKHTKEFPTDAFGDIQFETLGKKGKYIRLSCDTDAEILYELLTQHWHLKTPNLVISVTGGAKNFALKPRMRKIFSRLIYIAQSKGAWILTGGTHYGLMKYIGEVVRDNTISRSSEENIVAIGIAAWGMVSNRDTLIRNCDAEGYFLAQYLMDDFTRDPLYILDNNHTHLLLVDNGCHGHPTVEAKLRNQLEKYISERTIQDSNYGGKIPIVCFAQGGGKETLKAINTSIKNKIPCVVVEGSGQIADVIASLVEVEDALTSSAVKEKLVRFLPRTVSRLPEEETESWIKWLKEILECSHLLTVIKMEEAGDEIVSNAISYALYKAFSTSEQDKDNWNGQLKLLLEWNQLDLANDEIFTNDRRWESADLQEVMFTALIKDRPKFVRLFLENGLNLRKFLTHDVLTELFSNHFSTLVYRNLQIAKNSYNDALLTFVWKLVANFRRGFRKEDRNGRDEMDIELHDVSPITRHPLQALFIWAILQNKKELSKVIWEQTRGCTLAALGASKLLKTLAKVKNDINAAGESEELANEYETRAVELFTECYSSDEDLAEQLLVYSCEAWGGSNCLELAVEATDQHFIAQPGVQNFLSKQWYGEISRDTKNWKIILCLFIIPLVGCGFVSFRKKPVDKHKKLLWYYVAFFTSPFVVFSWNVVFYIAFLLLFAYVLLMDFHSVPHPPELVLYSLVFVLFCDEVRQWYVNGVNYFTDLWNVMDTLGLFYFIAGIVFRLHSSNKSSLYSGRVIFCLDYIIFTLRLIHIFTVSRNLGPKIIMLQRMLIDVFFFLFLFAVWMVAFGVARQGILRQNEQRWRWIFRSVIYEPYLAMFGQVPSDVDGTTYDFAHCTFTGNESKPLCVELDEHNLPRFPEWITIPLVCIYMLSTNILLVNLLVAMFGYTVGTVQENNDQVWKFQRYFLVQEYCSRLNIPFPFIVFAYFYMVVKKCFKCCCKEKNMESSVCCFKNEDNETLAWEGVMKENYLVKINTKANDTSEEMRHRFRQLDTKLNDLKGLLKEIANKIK

**Q.** What does the source list for O=C1NC(c2cccc([N+](=O)[O-])c2)=CCN1c1ccccc1O [Icilin]?
**A.** IL-8 expression (Interleukin-8 (IL-8)): no noteworthy effect on IL-8 expression; ROS levels [1, 5]: significantly reduces ROS levels; ROS levels ([1]; thermally challenged fibroblasts, Icilin pre-treatment at 0.02 nM): essentially restore ROS levels of thermally challenged fibroblasts to their normal quantities; IL-6 expression (Interleukin-6 (IL-6); non-thermally challenged fibroblasts, Icilin 0.0002-0.02 nM): increased IL-6 expression; IL-6 expression (Interleukin-6 (IL-6); thermally challenged fibroblasts, Icilin pre-treatment 0.0002-0.02 nM): significant decrease in IL-6 expression; potency relative to menthol (TRPM8): 200 times; fibroblast viability [2]: significantly higher than the untreated burned fibroblasts; TNF-α expression ([3]; fibroblasts without thermal treatment, increasing Icilin concentrations): steady increase in TNF-α expression; TNF-α expression ([3]; thermally challenged fibroblasts, Icilin pre-treatment, increasing concentrations): dropped significantly; TRPM8 expression [4, 5]: significantly increased; TRPM8 expression ([4]; thermally challenged fibroblasts, Icilin pre-treatment): increase in TRPM8 expression was maintained; IL-1β expression (Interleukin-1β (IL-1β); non-thermally challenged fibroblasts, increasing concentrations of Icilin): IL-1β expression also increases; IL-1β levels compared with non-thermally challenged fibroblasts at the same Icilin concentration (Interleukin-1β (IL-1β); thermally challenged fibroblasts, Icilin pre-treatment, all concentrations): below the levels of the non-thermally challenged fibroblasts
